Test results as given in US9090658B2, “Base-substituted benzylamine analogs for use as coagulation factor Xa inhibitors, the production and use thereof” (The Medicines Company (Leipzig) GmbH, priority 2003, dated 2015).
Where a name gives a salt, the structure may show the parent alone.

Legend:
Thrombin = Thrombin (UniProt P00735); experiment: Determination of the inhibitory constants for thrombin (method of Stürzebecher et al. 1997); assay type: biochemical
Source text: The Ki values are the average of at least three determinations.

factor Xa = biological target: T1, factor Xa (Bos taurus, UniProt P00743); experiment: Determination of the inhibitory constants for factor Xa (chromogenic substrate Moc-D-Nle-Gly-Arg-pNA, Dixon method); assay type: biochemical, bovine; details: for Ki: bovine factor Xa, 25° C., pH 8.0, average of at least three determinations
T1 construct: purchased Diagnostic Reagents Ltd, Thame, GB
T1 sequence (P00743 234-492 limits assumed): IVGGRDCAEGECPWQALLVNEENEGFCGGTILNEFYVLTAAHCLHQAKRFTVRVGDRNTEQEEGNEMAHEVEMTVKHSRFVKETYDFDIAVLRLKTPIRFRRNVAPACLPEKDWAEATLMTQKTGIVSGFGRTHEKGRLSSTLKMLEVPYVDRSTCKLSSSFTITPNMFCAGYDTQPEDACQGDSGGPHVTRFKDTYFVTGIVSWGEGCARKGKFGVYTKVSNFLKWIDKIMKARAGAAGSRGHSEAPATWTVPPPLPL
T1 sequence (P00743 41-180 partner limits assumed): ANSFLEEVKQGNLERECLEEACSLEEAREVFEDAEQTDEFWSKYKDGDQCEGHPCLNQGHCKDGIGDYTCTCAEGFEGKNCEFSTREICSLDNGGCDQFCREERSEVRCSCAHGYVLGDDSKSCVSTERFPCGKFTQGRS
Description: Determination of the inhibitory Effect
To determine the inhibitory effect, 200 μl of this buffer (0.05 M 0.154 M NaCl, 5% Ethanol, pH 8.0; contains the inhibitor), 25 μl of substrate (Moc-D-Nle-Gly-Arg-pNA in H2O; Pentapharm Ltd., Basle, Switzerland) and 50 μl of factor Xa (bovine, Diagnostic Reagents Ltd, thame, GB) were incubated at 25° C. After 3 min, the reaction was stopped By adding 25 μl of acetic acid (50%), and the absorption at 405 nm was determined using a Microplate Reader (MR 5000, Dynatech, Denkendorf, Germany). The Ki values were Founder by the Dixon method (boichem. J. 55, 170-171, 1953) by linear regression using a Computer program. The Ki values are the average of at least three determinations. The Thrombin inhibitions was determined in analogy to a method described earlier (Stürzebecher et al., J. Med. Chem. 40, 3091-3099, 1997).

SMILES	Ki (Thrombin) [nM]	selectivity ratio SR (SR = Ki thrombin/Ki factor Xa) (factor Xa)	Ki (factor Xa) [nM]
CS(=O)(=O)N[C@H](CCc1ccccc1)C(=O)NCC(=O)NCc1ccc(C(=N)N)cc1 [Compound 62]	1300	1.2	1060
N=C(N)c1ccc(CNC(=O)CNC(=O)[C@@H](CCc2ccccc2)NS(=O)(=O)Cc2cccnc2)cc1 [Compound 9, 3-PMs-dhomoPhe-Gly-4Amba×2 TFA]	5900	95	62
N=C(N)c1ccc(CNC(=O)[C@H](CO)NC(=O)[C@@H](CCc2ccc(O)cc2)NS(=O)(=O)Cc2ccccc2)cc1 [Compound 6, Bzls-d-homoTyr-Ser-4Amba×TFA]	1400	74	19
N=C(N)c1ccc(CNC(=O)CNC(=O)C(CCc2ccncc2)NS(=O)(=O)Cc2ccncc2)cc1 (racemic) [Compound 2, 4-PMs-D,L-homoAla(4-Pyr)-Gly-4Amba×3 Acetate]	3200	246	13
N=C(N)c1ccc(CNC(=O)CNC(=O)C(CCc2ccncc2)NS(=O)(=O)Cc2ccc(N)cc2)cc1 (stereo not shown) [Compound 28]	1000	454	2.2
N=C(N)c1ccc(CNC(=O)[C@H](CO)NC(=O)[C@@H](CCc2ccccc2)NS(=O)(=O)Cc2ccncc2)cc1 [Compound 7, 4-PMs-dhomoPhe-Gly-4Amba×2 TFA]	3300	7.2	460
N=C(N)c1ccc(CNC(=O)CNC(=O)[C@@H](CNc2ccncc2)NS(=O)(=O)Cc2ccccc2)cc1 [Compound 23]	2800	127	22
N=C(N)c1ccc(CNC(=O)CNC(=O)[C@@H](CCc2ccccc2)NS(=O)(=O)Cc2ccccn2)cc1 [Compound 8, 2-PMs-d-homoPhe-Gly-4Amba×2 TFA]	4900	96	51
N=C(N)c1ccc(CNC(=O)CNC(=O)[C@@H](CCc2ccccc2)NS(=O)(=O)Cc2ccc(O)cc2)cc1 [Compound 32]	380	105	3.6
N=C(N)c1ccc(CNC(=O)[C@H](CCC(=O)O)NC(=O)[C@@H](CCc2ccncc2)NS(=O)(=O)Cc2ccc(N)cc2)cc1 [Compound 26]	25000	14705	1.7
N=C(N)c1ccc(CNC(=O)CNC(=O)C(CCc2cccnc2)NS(=O)(=O)Cc2ccccc2)cc1 (stereo not shown) [Compound 24]	2000	400	5
N=C(N)c1ccc(CNC(=O)CNC(=O)C(CCc2ccccn2)NS(=O)(=O)Cc2ccccc2)cc1 (stereo not shown) [Compound 25]	2000	952	2.1
N=C(N)c1ccc(CNC(=O)[C@H](CO)NC(=O)[C@@H](CCc2ccncc2)NS(=O)(=O)Cc2ccccc2)cc1 [Compound 3a, Bzls-D,L-homoAla(4-Pyr)-Ser-4Amba×2 TFA]	910	97	9.4
N=C(N)c1ccc(CNC(=O)CNC(=O)[C@@H](CCc2ccc(O)cc2)NS(=O)(=O)Cc2ccc([N+](=O)[O-])cc2)cc1 [Compound 36]	860	165	5.2
CC(C)(C)OC(=O)CN[C@H](CCc1ccccc1)C(=O)NCC(=O)NCc1ccc(C(=N)N)cc1 [Compound 63]	1500	2.4	620
N=C(N)c1ccc(CNC(=O)CNC(=O)[C@@H](CCc2ccccc2)NS(=O)(=O)Cc2cc[n+]([O-])cc2)cc1 [Compound 59]	16000	16	970
CC(C)(C)OC(=O)CC[C@H](NC(=O)[C@@H](CCc1ccc(O)cc1)NS(=O)(=O)Cc1ccc([N+](=O)[O-])cc1)C(=O)NCc1ccc(C(=N)N)cc1 [Compound 54]	690	18	39
N=C(N)c1ccc(CNC(=O)CNC(=O)[C@H](CCc2ccccc2)NS(=O)(=O)Cc2ccccc2)cc1 [Compound 12]	11000	31	360
N=C(N)c1ccc(CNC(=O)CNC(=O)[C@@H](CCc2ccccc2)NCC(=O)O)cc1 [Compound 64]	28000	32	870

The remaining molecules from weak to strong by Ki (factor Xa), led by results:

Ki (Thrombin) [nM]	selectivity ratio SR (SR = Ki thrombin/Ki factor Xa) (factor Xa)	Ki (factor Xa) [nM]	SMILES
1300	1.2	1100	CS(=O)(=O)N[C@H](CCc1ccccc1)C(=O)NCC(=O)NCc1ccc(C(=N)N)cc1 [Compound 13]
4600	48.4	95	N=C(N)c1ccc(CNC(=O)[C@H](CO)NC(=O)[C@H](CCc2ccncc2)NS(=O)(=O)Cc2ccccc2)cc1 [Compound 3b, Bzls-D,L-homoAla(4-Pyr)-Ser-4Amba×2 TFA]
13000	156	83	N=C(N)c1ccc(CNC(=O)[C@H](CCC(=O)O)NC(=O)[C@@H](CCc2ccccc2)NS(=O)(=O)Cc2cccc([N+](=O)[O-])c2)cc1 [Compound 56]
84000	5250	16	N=C(N)c1ccc(CNC(=O)[C@H](CCC(=O)O)NC(=O)[C@@H](CCc2ccncc2)NS(=O)(=O)Cc2ccc(N)cc2)cc1 [Compound 52]
1400	87	16	CC(C)(C)OC(=O)CC[C@H](NC(=O)[C@@H](CCc1ccncc1)NS(=O)(=O)Cc1ccc([N+](=O)[O-])cc1)C(=O)NCc1ccc(C(=N)N)cc1 [Compound 51]
15000	1153	13	N=C(N)c1ccc(CNC(=O)[C@H](CCC(=O)O)NC(=O)[C@@H](CCc2ccccc2)NS(=O)(=O)Cc2ccccc2)cc1 [Compound 50]
		10	N=C(N)c1ccc(CNC(=O)CNC(=O)C(CCc2ccncc2)NS(=O)(=O)Cc2ccc(C(=O)O)cc2)cc1 (stereo not shown) [Compound 48]
47	7.2	6.5	N=C(N)c1ccc(CNC(=O)CNC(=O)[C@@H](CCc2ccccc2)NS(=O)(=O)Cc2ccccc2)cc1 [Compound 11]
170	26	6.4	N=C(N)c1ccc(CNC(=O)[C@H](CCC(=O)OCc2ccccc2)NC(=O)C(CCc2ccncc2)NS(=O)(=O)Cc2ccccc2)cc1 (stereo partly shown) [Compound 39]
100000	27778	3.6	N=C(N)c1ccc(CNC(=O)[C@H](CCC(=O)O)NC(=O)[C@@H](CCc2ccncc2)NS(=O)(=O)Cc2ccc(O)cc2)cc1 [Compound 33]
700	259	2.7	N=C(N)c1ccc(CNC(=O)CNC(=O)[C@@H](CCc2ccncc2)NS(=O)(=O)Cc2ccccc2)cc1 [Compound 22]
1500	556	2.7	N=C(N)c1ccc(CNC(=O)CNC(=O)[C@@H](CCc2ccc(O)cc2)NS(=O)(=O)Cc2ccccc2)cc1 [Compound 5, Bzls-d-homoTyr-Gly-4Amba×TFA]
